# Measured values reported in ChEMBL document CHEMBL1201862, “PubChem BioAssay data set” (2004).
# The source made the active and inactive calls.
# How the values were obtained:
# Beta-galactosidase = Beta-galactosidase (Escherichia coli, UniProt Q8VNN2); test: Dose response counterscreen for EBI2 assay utilizing the enzyme, b-galactosidase.; format: functional
# [1] = NIH/3T3 fibroblast cytotoxicity, dose response, cytotoxicity control for T. cruzi growth inhibitor project, cell-based, cherry-pick samples, set 2 (AID 651817); format: functional; details: NIH3T3
# Major prion protein = Major prion protein (Homo sapiens, UniProt P04156); format: functional, cell-based
# cells [2] = test: cells
# [3] = tested on: Streptococcus sp. 'group A'; test: growth inhibition of control SK(-) GAS strain, dose response, counter-screen for streptokinase expression inhibitor project, luminescence, kanamycin, BacTiterGlo, confirmation (AID 1900); format: functional, organism-based
# Streptococcus = test: Group A Streptococcus viability loss, dose response, counter-screen for streptokinase expression inhibitor project, luminescence, BacTiterGlo (AID 1915); format: functional, organism-based;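 also: potency for reduction of bacterial viability or growth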
# [4] = human group III sPLA2 inhibitors, dose response, biochemical, QFRET, IC50 (AID 743457);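 also: green fluorescence rise as the enzyme cleaves BODIPY PC-A2 in liposomes; potency for inhibition of the enzyme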
# cells [5] = format: functional, cell-based
# [6] = biological target: T1, Trace amine-associated receptor 1 (Homo sapiens, UniProt Q96RJ0); test: Fluorescence-based cell-based high throughput dose response assay to identify agonists of the human trace amine associated receptor 1 (TAAR1).; format: functional
# T1 sequence (Q96RJ0 whole entry): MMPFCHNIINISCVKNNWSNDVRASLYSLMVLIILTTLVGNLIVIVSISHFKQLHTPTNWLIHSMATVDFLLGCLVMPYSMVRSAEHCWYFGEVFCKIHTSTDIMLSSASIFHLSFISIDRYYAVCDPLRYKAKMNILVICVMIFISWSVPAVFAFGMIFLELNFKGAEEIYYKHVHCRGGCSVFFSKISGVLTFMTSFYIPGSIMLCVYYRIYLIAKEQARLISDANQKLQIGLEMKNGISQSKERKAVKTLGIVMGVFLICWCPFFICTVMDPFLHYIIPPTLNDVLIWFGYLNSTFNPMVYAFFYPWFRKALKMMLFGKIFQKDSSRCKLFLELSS
# [7] = biological target: T1, Trace amine-associated receptor 1; test: Counterscreen for agonists of the human trace amine associated receptor 1 (hTAAR1): Fluorescence-based cell-based high throughput dose response assay to identify hTAAR1 agonist that also desensitize TAAR1 receptor response.; format: functional
# cells [8] = format: functional, cell-based; remark: listed apart in the source
# Cytochrome P450 2D6 = Cytochrome P450 2D6 (Homo sapiens, UniProt P10635);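 also: CYP2D6 member of a cytochrome P450 panel assay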
# [9] = HepG2 cell cytotoxicity, dose response, cytotoxicity control, ATP luminescence, cherry-pick, activator set 2 (AID 1053143); format: functional, cell-based
# HeLa = test: HeLa cell cytotoxicity, dose response, cytotoxicity control, ATP luminescence, cherry-pick samples (AID 687004); format: functional, cell-based; details: Homo sapiens
# [10] = inhibitors of intracellular T. cruzi replication, confirmation, NIH3T3 host cells, beta-gal luminescence (AID 2044); format: functional, cell-based;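 also: intracellular parasites grown in NIH/3T3 mouse fibroblasts as host cells; luminescent beta-galactosidase reporter signal from transgenic T. cruzi replicating inside host cells; inhibitors lower the luminescence signal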
# [11] = cytotoxicity toward NIH3T3 fibroblasts, dose response, counter-screen, cell-based, ATP luminescence, mouse fibroblasts (AID 2010); format: functional;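 also: cells exposed to compound for about 90 hours before reading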
# [12] = HeLa cell cytotoxicity, dose response, cytotoxicity control for MgcRacGAP inhibitor project (AID 624300); format: functional
# [13] = biological target: T2, Rac GTPase-activating protein 1 (Homo sapiens, UniProt Q9H0H5); test: MgcRacGAP GTPase-activating activity inhibitors, confirmation, biochemical, ADP Hunter fluorescence, primary and confirmatory (AID 624330); format: functional
# T2 sequence (Q9H0H5 whole entry): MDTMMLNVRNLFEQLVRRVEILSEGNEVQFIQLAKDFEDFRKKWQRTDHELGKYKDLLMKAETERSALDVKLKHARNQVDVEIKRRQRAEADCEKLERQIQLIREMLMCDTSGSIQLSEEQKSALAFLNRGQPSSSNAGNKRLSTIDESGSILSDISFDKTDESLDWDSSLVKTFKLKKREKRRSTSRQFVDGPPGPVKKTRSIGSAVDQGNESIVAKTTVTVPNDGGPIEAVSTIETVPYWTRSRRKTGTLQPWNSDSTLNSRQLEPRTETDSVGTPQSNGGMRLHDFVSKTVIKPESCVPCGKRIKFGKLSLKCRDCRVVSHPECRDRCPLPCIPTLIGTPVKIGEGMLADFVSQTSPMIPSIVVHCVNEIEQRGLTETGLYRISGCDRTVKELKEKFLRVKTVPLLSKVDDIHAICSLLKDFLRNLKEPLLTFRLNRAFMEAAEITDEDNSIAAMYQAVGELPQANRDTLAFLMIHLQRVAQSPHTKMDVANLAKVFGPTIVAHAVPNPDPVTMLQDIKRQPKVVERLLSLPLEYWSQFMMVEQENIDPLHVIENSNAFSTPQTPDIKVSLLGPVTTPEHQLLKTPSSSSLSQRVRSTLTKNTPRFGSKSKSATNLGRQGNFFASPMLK
smiles,measurement,setting,value
COc1ccc(-c2cn(-c3ccc(OC)cc3)c(S)n2)cc1,IC50,Beta-galactosidase,> 80 µM (inactive)
C[C@H](CO)N1C[C@H](C)[C@H](CN(C)S(=O)(=O)c2ccc(Cl)cc2)Oc2c(NC(=O)c3nc4ccccc4s3)cccc2C1=O,AC50,[1],21.9 µM (active)
Cn1c(N2CCC(C(N)=O)CC2)nc2c1c(=O)n(Cc1cccc(Br)c1)c(=O)n2C,IC50,Major prion protein,8.38 µM (active)
same,IC50,cells [2],> 138 µM (inactive)
COc1ccc(/C=C/C(=O)NC(=S)NNC(=O)c2ccco2)cc1,EC50,[3],1.72 µM (active)
same,EC50,Streptococcus,3.29 µM (active)
same,IC50,[4],34.9 µM (inactive)
c1ccc2cc(CC3=NCCN3)ccc2c1,IC50,cells [5],> 30 µM (inactive)
same,EC50,[6],0.322 µM (active)
same,IC50,[7],3.65 µM (active)
same,EC50,cells [8],> 30 µM (inactive)
same,AC50,Cytochrome P450 2D6,39.8 µM (inconclusive)
Cc1ccc2c(c1)-c1nc3ccccc3cc1/C2=N/C1CCCCC1,AC50,[9],22.2 µM (active)
Fc1ccc(-n2c(S)nnc2-c2ccc3c(c2)OCO3)cc1Cl,IC50,[4],> 122 µM (inactive)
CO[C@H]1CN(C)C(=O)c2cc(NS(=O)(=O)CC(F)(F)F)ccc2OC[C@@H](C)N(Cc2cccnc2)C[C@@H]1C,AC50,HeLa,21.5 µM (active)
COCc1cc([S+]([O-])c2ccc(Cl)cc2)nc(C)n1 (centres undefined),EC50,[10],1.78 µM (active)
same,EC50,[11],> 60 µM (not active)
same,CC50,[12],95 µM (active)
same,IC50,[13],87.8 µM (active)
